Assay results as given in patent US20030083202A1, “Roots-inducing agent of plants and its treatment method” (priority 2001, published 2003).

Key:
[1] = system: cuttings of violets without roots; experiment: Roots-inducing and fixation-stimulating actions in cuttings of violets (leaf spray); type: in vivo
Experimental: Seedlings of violets were used in the experiment. The lower part of the seedlings of violets was cut and cuttings of violets without roots were prepared. Each cutting of violets was planted into cultivation soil in a plug tray and supplied water sufficiently.
The plug trays were lined up on the working stand in a green house where the temperature was controlled at 25-33 (C. The water solution of 4-chloroindole-3-acetic acid (20 ppm) was sprayed in a misty manner through an atomizer onto the surface of leaves so that the surface got wet uniformly (once).
Then, the plants were grew for 38 days with 1-2 times water supply every other day, and numbers of the cuttings with and without roots-induction and of the dead cuttings. In the control, the cuttings were sprayed only water instead of 4-chloroindole-3-acetic acid solution and grew under the same conditions as those described above.

[2] = system: cut stems of chrysanthemums; experiment: Roots-inducing and fixation-stimulating actions in cut stems of chrysanthemums (leaf spray); type: in vivo; set-up: Index for roots-induction, Total indexes: scale not given here; settings: 50th day
Text: Stems of chrysanthemums were cut out by 5 cm from the part at 5-10 cm from the top to prepare cuttings with 2 leaves. The water solution of the tested compound (5 ppm) was sprayed once in a misty manner through an mascot spray onto the surface of leaves so that the surface got wet uniformly for each 8 cuttings. The cuttings in the pots were grew in a cabinet where the temperature was controlled in the range of 15 (C at lowest at night to 30 (C at highest in the daytime. Water was supplied appropriately according to the extent of dryness of soil during the cultivation of plants.
On the 50th day after the tested compound was sprayed, roots-induction of each cutting was checked by diggings up, and its extent was shown as an index for each rank.

[3] = 20 ppm water solution sprayed once onto leaves, after 38 days, of 93 cuttings
[4] = 5 ppm water solution sprayed once onto leaves, 8 cuttings

Structure (SMILES): O=C(O)Cc1c[nH]c2cccc(Cl)c12 [4-Cl-IAA, 4-chloroindole-3-acetic acid]
- Roots-inducing and fixation-stimulating actions (in words) ([1]; 20 ppm spray, versus water control): extremely prominent
- Time at which roots-induction was observed ([1]; 20 ppm spray, roots checked by digging up at random, no statistical analysis, control only after 7 days): around 3 days
- Cuttings with roots-induction (number of cuttings) [1, 3]: 74
- Cuttings without roots-induction (%) [1, 3]: (6) %
- Cuttings without roots-induction (number of cuttings) [1, 3]: 6
- Dead cuttings (%) [1, 3]: (14) %
- Dead cuttings (number of cuttings) [1, 3]: 13
- Cuttings with roots-induction (%) ([1]; 20 ppm water solution sprayed once onto leaves, after 38 days, of 93 cuttings, listed as 4-Cl-iAA): (80) %
- Cuttings with roots-induction (%) ([1]; 20 ppm water solution sprayed once onto leaves, after 38 days, of 93 cuttings, listed as 4-chloroindole-3-acetic acid): 80%
- Index for roots-induction, cutting 1 [2, 4]: 3 (The cuttings with 20 or more roots per a cutting)
- Index for roots-induction, cutting 2 [2, 4]: 2 (The cuttings with 10-19 roots per a cutting)
- Index for roots-induction, cutting 3 [2, 4]: 2 (The cuttings with 10-19 roots per a cutting)
- Index for roots-induction, cutting 4 [2, 4]: 2 (The cuttings with 10-19 roots per a cutting)
- Index for roots-induction, cutting 5 [2, 4]: 2 (The cuttings with 10-19 roots per a cutting)
- Index for roots-induction, cutting 6 [2, 4]: 2 (The cuttings with 10-19 roots per a cutting)
- Index for roots-induction, cutting 7 [2, 4]: 0 (The cuttings with less than 4 roots (including no roots))
- Index for roots-induction, cutting 8 [2, 4]: 0 (The cuttings with less than 4 roots (including no roots))
- Index for roots-induction, Total indexes ([2]; sum of the indexes of 8 cuttings, 5 ppm spray, non-treatment 7): 13
